Experimental data reported in ChEMBL document CHEMBL1151861, “Synthesis of novel nitric oxide (NO)-releasing esters of timolol” (Bioorg Med Chem Lett, 2009).

Columns and labels:
[1] = Chemical stability in pH 5.7 buffer at room temperature after 4 weeks; format: physicochemical; conditions: read-out: Stability
[2] = Chemical stability in pH 5.7 buffer at room temperature after 1 day; format: physicochemical; conditions: for remaining at 24 h: pH 5.7 buffer, pH 5.7, read-out: Stability
[3] = Chemical stability in pH 5.7 buffer at room temperature after 1 week; format: physicochemical; conditions: read-out: Stability
[4] = Stability in rabbit corneal homogenate at 37 degC assessed as half life of timolol release; format: ADME, tissue-based, Oryctolagus cuniculus, Cornea; conditions: in vitro
[5] = Chemical stability in pH 5.7 buffer at room temperature after 12 weeks; format: physicochemical; conditions: read-out: Stability
[6] = Chemical stability in pH 5.7 buffer at room temperature after 8 weeks; format: physicochemical; conditions: read-out: Stability
[7] = Vasodilation activity in rabbit aortic rings assessed as relaxation of 3 uM methoxamine-induced contraction in absence of guanylate cyclase inhibitor 1H-[1,2,4]oxadiazolo[4,3-a]quinoxalin-1-one; format: functional, tissue-based; conditions: Oryctolagus cuniculus, Aorta
[8] = Vasodilation activity in rabbit aortic rings assessed as relaxation of 3 uM methoxamine-induced contraction in presence of 10 uM guanylate cyclase inhibitor 1H-[1,2,4]oxadiazolo[4,3-a]quinoxalin-1-one; format: functional, tissue-based; conditions: Oryctolagus cuniculus, Aorta

remaining at 672 h [1] [%]	remaining at 24 h [2] [%]	remaining at 168 h [3] [%]	Stability ([2]; buffer, pH 5.7, 24 h)	t1/2 [4] [h]	remaining at 2016 h [5] [%]	remaining at 1344 h [6] [%]	EC50 [7] [µM]	EC50 [8] [µM]	Structure (SMILES)
84.4	98.6	96.3							COc1cc(OCCO[N+](=O)[O-])ccc1C(=O)O[C@@H](CNC(C)(C)C)COc1nsnc1N1CCOCC1
			Unstable	4.62					COc1ccc(CO[N+](=O)[O-])cc1C(=O)O[C@@H](CNC(C)(C)C)COc1nsnc1N1CCOCC1.O=C(O)/C=C\C(=O)O
	96.5	82.5		4.3					CC(C)(C)NC[C@@H](COc1nsnc1N1CCOCC1)OC(=O)c1ccccc1OCCO[N+](=O)[O-].O=C(O)/C=C\C(=O)O
98.3	99.8	99.3		> 23.33	98.3	98.3			COc1cccc(OCCO[N+](=O)[O-])c1C(=O)O[C@@H](CNC(C)(C)C)COc1nsnc1N1CCOCC1.O=C(O)/C=C\C(=O)O
	96.7	94.9							COc1cc(COCCO[N+](=O)[O-])ccc1C(=O)O[C@@H](CNC(C)(C)C)COc1nsnc1N1CCOCC1
98	100	100		> 23.33	93.2	96.8			COc1cc(COC(=O)CCCCCO[N+](=O)[O-])cc(OC)c1C(=O)O[C@@H](CNC(C)(C)C)COc1nsnc1N1CCOCC1.O=C(O)/C=C\C(=O)O
	98.8	93		0.167			15.5	32.7	COc1cc(COC(=O)COCCOCCO[N+](=O)[O-])c(C(=O)O[C@@H](CNC(C)(C)C)COc2nsnc2N2CCOCC2)c(OC)c1.O=C(O)/C=C\C(=O)O
	96	72.1		> 23.33					COc1cccc(C(=O)O[C@@H](CNC(C)(C)C)COc2nsnc2N2CCOCC2)c1OCCO[N+](=O)[O-].O=C(O)/C=C\C(=O)O
90.6	96.5	96.5		0.2					COc1cc(COC(=O)CCCO[N+](=O)[O-])c(C(=O)O[C@@H](CNC(C)(C)C)COc2nsnc2N2CCOCC2)c(OC)c1.O=C(O)/C=C\C(=O)O
94.7	98.4	99.1		2	93.2	94.9			COc1cc(COC(=O)C(C)(C)CO[N+](=O)[O-])c(C(=O)O[C@@H](CNC(C)(C)C)COc2nsnc2N2CCOCC2)c(OC)c1.O=C(O)/C=C\C(=O)O
95.8	97.3	96.7		0.667	86	91.7			COc1cc(COC(=O)CCOCC(CO[N+](=O)[O-])O[N+](=O)[O-])c(C(=O)O[C@@H](CNC(C)(C)C)COc2nsnc2N2CCOCC2)c(OC)c1.O=C(O)/C=C\C(=O)O (some centres not stated)
100	101	101		> 23.33	98.5	99.6			COc1cc(OCCO[N+](=O)[O-])cc(C)c1C(=O)O[C@@H](CNC(C)(C)C)COc1nsnc1N1CCOCC1.O=C(O)/C=C\C(=O)O
	97.9	84.2							CC(C)(C)NC[C@@H](COc1nsnc1N1CCOCC1)OC(=O)c1ccc(OCCO[N+](=O)[O-])cc1OCCO[N+](=O)[O-]
97.7	99.6	99.6		0.167		92.8	6.7	56.3	COc1cc(COC(=O)CCCCCO[N+](=O)[O-])c(C(=O)O[C@@H](CNC(C)(C)C)COc2nsnc2N2CCOCC2)c(OC)c1.O=C(O)/C=C\C(=O)O
	96	74.8							CC(C)(C)NC[C@@H](COc1nsnc1N1CCOCC1)OC(=O)c1ccccc1
							28.8	36.5	CC(C)(C)NC[C@H](O)COc1nsnc1N1CCOCC1 [TIMOLOL]

Structure (SMILES)	remaining at 672 h [1] [%]	remaining at 24 h [2] [%]	remaining at 168 h [3] [%]	Stability ([2]; buffer, pH 5.7, 24 h)	t1/2 [4] [h]	remaining at 2016 h [5] [%]	remaining at 1344 h [6] [%]	EC50 [7] [µM]	EC50 [8] [µM]
O=[N+]([O-])O[C@@H]1CO[C@H]2[C@@H]1OC[C@@H]2O [ISOSORBIDE MONONITRATE]								9.6	> 100
